Measurements: ChEMBL document CHEMBL3046079, “Synthesis, herbicidal activity, and mode of action of IR 5790” (J Agric Food Chem, 2001)
Calls of active or inactive are those of the source. The rule behind the calls is not given here.

How the values were obtained:
[1] = target: T1, Putative protoporphyrinogen IX oxidase (Cucumis sativus) (UniProt C6L817); assay: Inhibition of protoporphyrin oxidase in Cucumis sativus (cucumber) cotyledon disc assessed as light-dependent membrane damage at 100 uM incubated for 20 hr in dark followed by 8 hr in presence of light measured as electrolyte leakage relative to control
T1 sequence (whole entry): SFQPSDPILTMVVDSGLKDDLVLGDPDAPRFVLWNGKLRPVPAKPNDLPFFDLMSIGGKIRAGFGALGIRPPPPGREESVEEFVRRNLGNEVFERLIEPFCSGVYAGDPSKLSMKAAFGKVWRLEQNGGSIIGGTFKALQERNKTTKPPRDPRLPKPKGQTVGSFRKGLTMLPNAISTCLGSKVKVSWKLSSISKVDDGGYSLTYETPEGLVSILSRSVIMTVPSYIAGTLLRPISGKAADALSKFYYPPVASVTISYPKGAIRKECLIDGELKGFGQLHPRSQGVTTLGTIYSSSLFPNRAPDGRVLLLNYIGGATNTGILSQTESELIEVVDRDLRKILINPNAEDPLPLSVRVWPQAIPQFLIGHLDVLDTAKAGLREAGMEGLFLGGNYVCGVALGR

[2] = target: T1, Putative protoporphyrinogen IX oxidase (Cucumis sativus); assay: Inhibition of protoporphyrin oxidase in Cucumis sativus (cucumber) cotyledon disc assessed as light-dependent membrane damage at 1 uM incubated for 20 hr in dark followed by 8 hr in presence of light measured as electrolyte leakage relative to control
Zea mays = assay: Phytotoxicity against Zea mays (maize) assessed as injury at 150 g/ha applied as post-emergent treatment at 15 days post-sowing measured after 15 days relative to control; type: organism-based; settings: in vivo, other, 360 h
Portulaca oleracea [3] = assay: Pre-emergence herbicidal activity against Portulaca oleracea assessed as injury at 50 g/ha applied at 24 hr post-sowing measured after 28 days relative to control; type: functional
Persicaria maculosa [4] = assay: Pre-emergence herbicidal activity against Persicaria maculosa assessed as injury at 50 g/ha applied at 24 hr post-sowing measured after 28 days relative to control; type: functional
Amaranthus retroflexus = assay: Pre-emergence herbicidal activity against Amaranthus retroflexus assessed as injury at 50 g/ha applied at 24 hr post-sowing measured after 28 days relative to control; type: functional
Brassica napus [5] = assay: Phytotoxicity against Brassica napus (oilseed rape) assessed as injury at 150 g/ha applied as pre-emergent treatment at 24 hr post-sowing measured after 28 days relative to control; type: organism-based; settings: in vivo, other, 672 h
Oryza sativa [6] = assay: Phytotoxicity against Oryza sativa (rice) assessed as injury at 150 g/ha applied as pre-emergent treatment at 24 hr post-sowing measured after 28 days relative to control; type: organism-based; settings: in vivo, other, 672 h
Phalaris arundinacea = assay: Pre-emergence herbicidal activity against Phalaris arundinacea assessed as injury at 150 g/ha applied at 24 hr post-sowing measured after 28 days relative to control; type: functional
Brassica napus [7] = assay: Phytotoxicity against Brassica napus (oilseed rape) assessed as injury at 50 g/ha applied as pre-emergent treatment at 24 hr post-sowing measured after 28 days relative to control; type: organism-based; settings: in vivo, other, 672 h
Oryza sativa [8] = assay: Phytotoxicity against Oryza sativa (rice) assessed as injury at 50 g/ha applied as pre-emergent treatment at 24 hr post-sowing measured after 28 days relative to control; type: organism-based; settings: in vivo, other, 672 h
Echinochloa crus-galli = assay: Pre-emergence herbicidal activity against Echinochloa crus-galli (barnyard grass) assessed as injury at 50 g/ha applied at 24 hr post-sowing measured after 28 days relative to control; type: functional
Avena fatua [9] = assay: Pre-emergence herbicidal activity against Avena fatua assessed as injury at 50 g/ha applied at 24 hr post-sowing measured after 28 days relative to control; type: functional
Alopecurus myosuroides [10] = assay: Post-emergence herbicidal activity against Alopecurus myosuroides assessed as injury at 150 g/ha applied at 15 days post-sowing measured after 15 days relative to control; type: functional
Avena fatua [11] = assay: Post-emergence herbicidal activity against Avena fatua assessed as injury at 150 g/ha applied at 15 days post-sowing measured after 15 days relative to control; type: functional
Portulaca oleracea [12] = assay: Post-emergence herbicidal activity against Portulaca oleracea assessed as injury at 150 g/ha applied at 15 days post-sowing measured after 15 days relative to control; type: functional
Papaver rhoeas = assay: Post-emergence herbicidal activity against Papaver rhoeas assessed as injury at 150 g/ha applied at 15 days post-sowing measured after 15 days relative to control; type: functional
Matricaria chamomilla = assay: Post-emergence herbicidal activity against Matricaria chamomilla assessed as injury at 150 g/ha applied at 15 days post-sowing measured after 15 days relative to control; type: functional
Gossypium hirsutum = assay: Phytotoxicity against Gossypium hirsutum (cotton) assessed as injury at 150 g/ha applied as post-emergent treatment at 15 days post-sowing measured after 15 days relative to control; type: organism-based; settings: in vivo, other, 360 h
Beta vulgaris = assay: Phytotoxicity against Beta vulgaris assessed as injury at 150 g/ha applied as post-emergent treatment at 15 days post-sowing measured after 15 days relative to control; type: organism-based; settings: in vivo, other, 360 h
Triticum aestivum = assay: Phytotoxicity against Triticum aestivum (wheat) assessed as injury at 150 g/ha applied as post-emergent treatment at 15 days post-sowing measured after 15 days relative to control; type: organism-based; settings: in vivo, other, 360 h
Sorghum bicolor = assay: Post-emergence herbicidal activity against Sorghum bicolor assessed as injury at 15 g/ha applied at 15 days post-sowing measured after 15 days relative to control; type: functional
Alopecurus myosuroides [13] = assay: Post-emergence herbicidal activity against Alopecurus myosuroides assessed as injury at 15 g/ha applied at 15 days post-sowing measured after 15 days relative to control; type: functional
Persicaria maculosa [14] = assay: Post-emergence herbicidal activity against Persicaria maculosa assessed as injury at 15 g/ha applied at 15 days post-sowing measured after 15 days relative to control; type: functional
Alopecurus myosuroides [15] = assay: Pre-emergence herbicidal activity against Alopecurus myosuroides assessed as injury at 150 g/ha applied at 24 hr post-sowing measured after 28 days relative to control; type: functional
Stellaria media = assay: Pre-emergence herbicidal activity against Stellaria media assessed as injury at 150 g/ha applied at 24 hr post-sowing measured after 28 days relative to control; type: functional
Panicum dichotomiflorum = assay: Post-emergence herbicidal activity against Panicum dichotomiflorum assessed as injury at 50 g/ha applied at 15 days post-sowing measured after 15 days relative to control; type: functional
Alopecurus myosuroides [16] = assay: Post-emergence herbicidal activity against Alopecurus myosuroides assessed as injury at 50 g/ha applied at 15 days post-sowing measured after 15 days relative to control; type: functional
Xanthium strumarium = assay: Post-emergence herbicidal activity against Xanthium strumarium (cocklebur) assessed as injury at 50 g/ha applied at 15 days post-sowing measured after 15 days relative to control; type: functional
Sida spinosa = assay: Post-emergence herbicidal activity against Sida spinosa assessed as injury at 50 g/ha applied at 15 days post-sowing measured after 15 days relative to control; type: functional
Ipomoea purpurea = assay: Post-emergence herbicidal activity against Ipomoea purpurea (common morning-glory) assessed as injury at 50 g/ha applied at 15 days post-sowing measured after 15 days relative to control; type: functional
Capsella bursa-pastoris = assay: Post-emergence herbicidal activity against Capsella bursa-pastoris assessed as injury at 50 g/ha applied at 15 days post-sowing measured after 15 days relative to control; type: functional

## C#CCOc1cc(-n2nc(C(C)(C)C)sc2=O)c(Cl)cc1Cl
[1]
  inhibition: 90%
[2]
  inhibition: inactive
Zea mays
  Activity: 0%
Portulaca oleracea [3]
  Activity: 70%
Persicaria maculosa [4]
  Activity: 0%
Amaranthus retroflexus
  Activity: 50%
Brassica napus [5]
  Activity: 0%
Oryza sativa [6]
  Activity: 0%
Phalaris arundinacea
  Activity: 0%
Brassica napus [7]
  Activity: 0%
Oryza sativa [8]
  Activity: 0%
Echinochloa crus-galli
  Activity: 30%
Avena fatua [9]
  Activity: 0%
Alopecurus myosuroides [10]
  Activity: 70%
Avena fatua [11]
  Activity: 30%
Portulaca oleracea [12]
  Activity: 90%
Papaver rhoeas
  Activity: 30%
Matricaria chamomilla
  Activity: 10%
Gossypium hirsutum
  Activity: 70%
Beta vulgaris
  Activity: 90%
Triticum aestivum
  Activity: 50%
Sorghum bicolor
  Activity: 10%
Alopecurus myosuroides [13]
  Activity: 0%
Persicaria maculosa [14]
  Activity: 70%
Alopecurus myosuroides [15]
  Activity: 70%
Stellaria media
  Activity: 30%
Panicum dichotomiflorum
  Activity: 50%
Alopecurus myosuroides [16]
  Activity: 30%
Xanthium strumarium
  Activity: 10%
Sida spinosa
  Activity: 50%
Ipomoea purpurea
  Activity: 90%
Capsella bursa-pastoris
  Activity: 10%
